For the test, the system named is BDF1 mice, P388 leukemia ip, median survival T/C. As to the kind of experiment: NCI In Vivo Anticancer Drug Screen. Data for tumor model P388 Leukemia (intraperitoneal) in B6D2F1 (BDF1) mice. The conditions noted are these: endpoint: median survival time, higher = longer survival. Put shortly:
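Vehicle-dosed animals serve as the reference; survival of compound-dosed, tumour-implanted mice is divided by it.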

Where [1] appears, read: dose: 25.0 mg/kg/injection, schedule: Q01DX009 (ip), vehicle: Klucel (hydroxypropylcellulose) (HPC).
Where [2] appears, read: dose: 50.0 mg/kg/injection, schedule: Q01DX009 (ip), vehicle: Klucel (hydroxypropylcellulose) (HPC).
The mark [3] stands for this setting: dose: 100.0 mg/kg/injection, schedule: Q01DX009 (ip), vehicle: Klucel (hydroxypropylcellulose) (HPC).
[4] abbreviates: dose: 200.0 mg/kg/injection, schedule: Q01DX009 (ip), vehicle: Klucel (hydroxypropylcellulose) (HPC).
Where [5] appears, read: dose: 50.0 mg/kg/injection, schedule: Q01DX009 (ip), vehicle: saline with Tween-80.
Setting [6] is: dose: 100.0 mg/kg/injection, schedule: Q01DX009 (ip), vehicle: saline with Tween-80.
Where [7] appears, read: dose: 200.0 mg/kg/injection, schedule: Q01DX009 (ip), vehicle: saline with Tween-80.
The mark [8] stands for this setting: dose: 25.0 mg/kg/injection, schedule: Q01DX009 (ip), vehicle: saline with Tween-80.
The mark [9] stands for this setting: dose: 25.0 mg/kg/injection, schedule: Q04DX003 (ip), vehicle: saline with Tween-80.
Where [10] appears, read: dose: 50.0 mg/kg/injection, schedule: Q04DX003 (ip), vehicle: saline with Tween-80.
The mark [11] stands for this setting: dose: 100.0 mg/kg/injection, schedule: Q04DX003 (ip), vehicle: saline with Tween-80.
The mark [12] stands for this setting: dose: 400.0 mg/kg/injection, schedule: Q01DX009 (ip), vehicle: saline with Tween-80.
[13] abbreviates: dose: 100.0 mg/kg/injection, schedule: Q01DX001 (ip), vehicle: saline.
Where [14] appears, read: dose: 200.0 mg/kg/injection, schedule: Q01DX001 (ip), vehicle: saline.
The mark [15] stands for this setting: dose: 200.0 mg/kg/injection, schedule: Q04DX003 (ip), vehicle: saline with Tween-80.
[16] abbreviates: dose: 400.0 mg/kg/injection, schedule: Q04DX003 (ip), vehicle: saline with Tween-80.

Consider 20 compounds from PubChem BioAssay AID328 (DTP/NCI, 2004).

Values joined by “and” are separate entries in the source; they are usually repeats but may differ in a detail not shown here. Equal entries are not always repeated. Inconclusive results and toxic doses are left out.

With `O=C(SCC(NSc1ccccc1[N+](=O)[O-])C(=O)O)c1ccccc1` (stereo unspecified), the T/C was 105 % of control (dose: 12.0 mg/kg/injection, schedule: Q01DX009 (ip), vehicle: Klucel (hydroxypropylcellulose) (HPC)); 115 % of control under setting [1]; 115 % of control under setting [2]; 110 % of control under setting [3]; 105 % of control under setting [4].
For the compound `Cc1ccc2c(c1)Oc1ccccc1N=C2`, the T/C reads like this: under setting [5], 97 % of control; under setting [6], 103 % of control; under setting [7], 97 % of control.
Take `c1ccc(CC2NCCc3ccccc32)cc1` (stereo unspecified): the T/C by setting is: under setting [8], 96 % of control; under setting [9], 115 % of control; under setting [5], 111 % of control; under setting [10], 105 % of control; under setting [6], 107 % of control; under setting [11], 105 % of control.
For the compound `N#CC(C#N)C1c2ccccc2C([N+](=O)[O-])c2ccccc21` (stereo unspecified), the T/C reads like this: under setting [6], 112 % of control; under setting [7], 116 % of control; under setting [12], 112 % of control.
Take `COc1ccc(C(=O)CC(C#N)c2ccc(OC)c(OC)c2)cc1OC` (stereo unspecified): the T/C by setting is: under setting [6], 100 % of control; under setting [7], 100 % of control; under setting [12], 95 % of control.
With `C=CCn1c2ccccc2c2cc3cnccc3c(C)c21`, the T/C reads like this: (dose: 50.0 mg/kg/injection, schedule: Q04DX003 (ip), vehicle: saline sonified) 95 % of control; (dose: 100.0 mg/kg/injection, schedule: Q04DX003 (ip), vehicle: saline sonified) 90 % of control; (dose: 200.0 mg/kg/injection, schedule: Q04DX003 (ip), vehicle: saline sonified) 95 % of control.
Turning to `CNC(=O)NCCOC(=O)NC`, the T/C is 100 % of control (dose: 200.0 mg/kg/injection, schedule: Q01DX009 (ip), vehicle: saline) and 100 % of control (dose: 400.0 mg/kg/injection, schedule: Q01DX009 (ip), vehicle: saline).
Take `CSc1nnc(-c2ccncc2)s1`: the T/C (dose: 50.0 mg/kg/injection, schedule: Q01DX001 (ip), vehicle: saline) was 100 % of control; the T/C under setting [13] was 100 % of control; the T/C under setting [14] was 100 % of control.
As to `CC(=N\O)/C(C)=N/O.CC(=N\O)/C(C)=N/O.O.[CH3-].[Co]`, the T/C reads like this: (dose: 6.25 mg/kg/injection, schedule: Q01DX009 (ip), vehicle: saline) 100 % of control; (dose: 12.5 mg/kg/injection, schedule: Q01DX009 (ip), vehicle: saline) 97 % of control.
On to `Cc1[nH]c(C)c(C(=O)OC2CCN(C)CC2)c1C`, for which the T/C by setting is: (dose: 6.25 mg/kg/injection, schedule: Q04DX003 (ip), vehicle: saline with Tween-80) 103 % of control; (dose: 12.5 mg/kg/injection, schedule: Q04DX003 (ip), vehicle: saline with Tween-80) 100 % of control; under setting [9], 91 % of control.
Turning to `C[C@]12CCC(=O)C=C1CC[C@@H]1[C@@H]2[C@@H](O)C[C@@]2(C)[C@H]1CC[C@]2(O)C(=O)COC(=O)COCC(=O)O`, the T/C under setting [6] is 109 % of control, the T/C under setting [7] was 109 % of control and the T/C under setting [12] was 109 % of control.
Consider `Nc1ccn(C2OC(COC3CCCCO3)C(OC3CCCCO3)C2OC2CCCCO2)c(=O)n1` (stereo unspecified), for which the T/C was 108 % of control (dose: 50.0 mg/kg/injection, schedule: Q01DX007 (ip), vehicle: saline); 94 % of control (dose: 100.0 mg/kg/injection, schedule: Q01DX007 (ip), vehicle: saline); 90 % of control (dose: 100.0 mg/kg/injection, schedule: Q04DX003 (ip), vehicle: saline); 94 % of control (dose: 200.0 mg/kg/injection, schedule: Q01DX007 (ip), vehicle: saline); 86 % of control (dose: 200.0 mg/kg/injection, schedule: Q04DX003 (ip), vehicle: saline); 100 % of control (dose: 400.0 mg/kg/injection, schedule: Q01DX007 (ip), vehicle: saline). Also, under “dose: 400.0 mg/kg/injection, schedule: Q04DX003 (ip), vehicle: saline”, the T/C was 104 % of control.
In the case of `CCOC(=O)C(=O)c1c[nH]c2ccccc12`, the T/C is 90 % of control under setting [10]; 109 % of control under setting [3]; 104 % of control under setting [11]; 90 % of control under setting [4]; 100 % of control under setting [15]; 109 % of control (dose: 400.0 mg/kg/injection, schedule: Q01DX009 (ip), vehicle: Klucel (hydroxypropylcellulose) (HPC)).
As for `OC1CC2C3C4C1C1C2C3C41` (stereo unspecified), the T/C by setting is: under setting [13], 95 % of control; (dose: 100.0 mg/kg/injection, schedule: Q04DX003 (ip), vehicle: Klucel (hydroxypropylcellulose) (HPC)) 115 % of control; under setting [14], 86 % of control; (dose: 200.0 mg/kg/injection, schedule: Q04DX003 (ip), vehicle: Klucel (hydroxypropylcellulose) (HPC)) 115 % of control; (dose: 400.0 mg/kg/injection, schedule: Q04DX003 (ip), vehicle: Klucel (hydroxypropylcellulose) (HPC)) 90 % of control.
With `CCCCCOC(=O)c1ccc(OP(=O)(N(C)C)N(C)C)cc1`, the T/C was 116 % of control under setting [5] and 100 % of control under setting [6].
`O=S(=O)(O)c1ccc(-c2ccc(S(=O)(=O)O)cc2)cc1` (tested in a mixture with another compound): the T/C by setting is: (dose: 21.0 mg/kg/injection, schedule: Q04DX003 (ip), vehicle: saline) 200 % of control; (dose: 33.0 mg/kg/injection, schedule: Q04DX003 (ip), vehicle: saline) 270 % of control; (dose: 50.0 mg/kg/injection, schedule: Q04DX003 (ip), vehicle: saline) 300 % of control; (dose: 110.0 mg/kg/injection, schedule: Q04DX003 (ip), vehicle: saline) 300 % of control.
Take `CC(NC(=O)OCc1ccccc1)C(=O)NCCN(C)C` (stereo unspecified): the T/C is 100 % of control (dose: 50.0 mg/kg/injection, schedule: Q01DX005 (ip), vehicle: saline); 91 % of control (dose: 100.0 mg/kg/injection, schedule: Q01DX005 (ip), vehicle: saline); 100 % of control (dose: 200.0 mg/kg/injection, schedule: Q01DX005 (ip), vehicle: saline).
With `O=C(CC(O)(C(F)(F)F)C(F)(F)F)c1ccccc1Cl`, the T/C runs as follows: under setting [11], 120 % of control; under setting [15], 100 % of control; under setting [16], 120 % of control.
Consider `CS(=O)(=O)OCCC(=O)NCNC(=O)CCOS(C)(=O)=O`, for which the T/C was 100 % of control (dose: 9.0 mg/kg/injection, schedule: Q04DX003 (ip), vehicle: Klucel (hydroxypropylcellulose) (HPC)); 113 % of control (dose: 12.0 mg/kg/injection, schedule: Q04DX003 (ip), vehicle: Klucel (hydroxypropylcellulose) (HPC)); 150 % of control (dose: 12.5 mg/kg/injection, schedule: Q01DX009 (ip), vehicle: Klucel (hydroxypropylcellulose) (HPC)); 113 % of control (dose: 13.0 mg/kg/injection, schedule: Q04DX003 (ip), vehicle: Klucel (hydroxypropylcellulose) (HPC)); 156 % of control (dose: 22.0 mg/kg/injection, schedule: Q01DX009 (ip), vehicle: Klucel (hydroxypropylcellulose) (HPC)); 172 % of control under setting [1]. In addition, the T/C was 163 % of control (dose: 25.0 mg/kg/injection, schedule: Q04DX003 (ip), vehicle: Klucel (hydroxypropylcellulose) (HPC)); 176 % of control (dose: 33.0 mg/kg/injection, schedule: Q01DX009 (ip), vehicle: Klucel (hydroxypropylcellulose) (HPC)); 155 % of control and 171 % of control (dose: 33.0 mg/kg/injection, schedule: Q04DX003 (ip), vehicle: Klucel (hydroxypropylcellulose) (HPC)); 168 % of control and 218 % of control under setting [2]; 181 % of control and 185 % of control and 195 % of control (dose: 50.0 mg/kg/injection, schedule: Q04DX003 (ip), vehicle: Klucel (hydroxypropylcellulose) (HPC)); 124 % of control (dose: 75.0 mg/kg/injection, schedule: Q01DX009 (ip), vehicle: Klucel (hydroxypropylcellulose) (HPC)). Moreover, the T/C (dose: 75.0 mg/kg/injection, schedule: Q04DX003 (ip), vehicle: Klucel (hydroxypropylcellulose) (HPC)) is 190 % of control and 214 % of control.
For the compound `CCNC(C)(C)C(=O)c1ccc(Cl)s1`, the T/C runs as follows: under setting [8], 98 % of control; under setting [5], 91 % of control; under setting [10], 99 % of control; under setting [6], 96 % of control; under setting [11], 86 % of control and 109 % of control; under setting [15], 89 % of control and 104 % of control. The T/C under setting [16] is 95 % of control and 96 % of control.
